The values below are quoted from earlier work in US20220160665A1, “COMPOSITION IN MICRO-ENCAPSULATED FORM, BASED ON N-BUTYRICACID OR DERIVATIVES THEREOF, FOR TREATING CROHNS DISEASE OR ULCERATIVE RECTAL COLITIS” (SILA S.R.L., priority 2019, published 2022).

The conditions of the data set: solid granular form, white-coloured powder, commercially available.

`CCCC(=O)[O-].[Na+]` [sodium salt of the n-butyric acid]: the “temperature up to which stable” value was “up to 250 °C”.
